Results: patent US10821079B2, “PKC activators and combinations thereof” (Cognitive Research Enterprises, Inc., priority 2011, dated 2020)

What was measured:
PKC-α = PKC-α translocation to membrane in SH-SY5Y cells (Western blot); format: cell-based, human; conditions: 0.27 nM, 0-60 min
Protocol: Cells were harvested in homogenizing buffer containing 10 mM Tris-Cl (pH 7.4), 1 mM PMSF (phenylmethylsulfonyl fluoride), 1 mM EGTA, 1 mM EDTA, 50 mM NaF, and 20 μM leupeptin and were lysed by sonication. The homogenate was centrifuged at 100,000×g for 15 min at 4° C. to obtain the cytosolic fraction (supernatant) and membrane (pellet). The pellet was resuspended in the homogenizing buffer by sonication. Protein concentration was measured using the Coomassie Plus (Bradford) Protein Assay kit (Pierce, USA). Following quantification, 20 μg of protein from each sample was subjected to SDS-PAGE analysis in 4-20% gradient Tris-Glycine gel (Invitrogen, USA). The separated protein was then transferred to nitrocellulose membrane. The membrane was blocked with BSA at room temperature for 15 min and was incubated with primary antibody over night at 4° C. […] Western Blot was imaged in the ImageQuant RT-ECL (GE Life Sciences, Piscataway, N.J.) and densitometric quantification was performed using the IMAL software (Blanchette Rockefeller Neurosciences Institute, Morgantown, W. Va.). […]
Equal amounts of proteins were loaded in each lane (20 μg) for both the cytosol and membrane fractions. Activation of PKC was calculated as the percentage of total PKC in the membrane (membrane/cytosol+membrane).

PKC-ε = PKC-ε mRNA by RT-PCR in primary rat hippocampal neurons; format: cell-based; conditions: controls and ASPD-treated cells
Protocol: RNA was isolated from the cells using Trizol reagent (Invitrogen, USA) following the manufacturer's protocol. Briefly, 5 μg of total RNA was reverse transcribed using oligo (dT) and Superscript III (Invitrogen, USA) at 50° C. for 1 hr. Two μl of the cDNA product was amplified using primers for PKC-ε (Forward Primer—[…], Reverse primer—[…]), and β-tubulin (Forward Primer—[…], Reverse primer—[…]) (Origene, Rockville, Md.) for 25 cycles following standard PCR protocols and 55° C. annealing temperature. The PCR amplicons were analyzed in an E-Gel (Invitrogen, USA). The gel image was documented using a Fuji Image gel scanner (FLA-9000, Fuji Film) and densitometric quantification was performed using the IMAL software (Blanchette Rockefeller Neurosciences Institute, Morgantown, W. Va.). Data were represented as normalized ratio of PKC-ε OD (Optical Density) against β-tubulin OD for three independent experiments.
Primary neurons were treated with ASPD and/or DCPLA-ME. PKC-ε mRNA was quantified by RT-PCR as described above. RNA prepared from control and treated cultured primary rat hippocampal neurons were isolated and reverse transcribed. Individual cDNA was amplified for PKC-ε and β-actin. PKC-ε expression was normalized to β-actin.

Row | Compound | PKC-α translocation over time (in words) (PKC-α) | PKC-ε transcript levels (in words) (PKC-ε)
1 | CCC/C=C/C=C/C(=O)O[C@H]1/C(=C/C(=O)OC)C[C@H]2C[C@H]([C@@H](C)O)OC(=O)C[C@H](O)C[C@@H]3C[C@H](OC(C)=O)C(C)(C)C(O)(C[C@@H]4C/C(=C/C(=O)OC)C[C@H](/C=C/C(C)(C)[C@]1(O)O2)O4)O3 [Bryostatin-1] | came down to baseline at 60 min | 
2 | CCCCCC1CC1CC1CC1CCCCCCCC(=O)OC (centres unmarked) [DCPLA-ME, methyl 8-(2-((2-pentylcyclopropyl)methyl)cyclopropyl)octanoate] |  | increased PKC-ε transcript levels
